The text below walks through data of patent US4309559A, “Sulphonamides useful as pesticides” (FBC Limited, priority 1977, dated 1982).

The test system of one assay is Maize (Zea mays). Put plainly: Soil incorporation (attaclay/sand dust), growth regulatory or herbicidal effects, maize. Type of assay: in vivo. The note with it: 504 h, soil incorporation 130 ppm, 21 days, 0=no effect, 100=complete kill/suppression, read-out: growth regulatory or herbicidal effect score. The text has this: (§1) The compounds listed below were each formulated as an attaclay/sand dust and incorporated into John Innes I potting compost at a rate equivalent to 26 parts per million weight/volume of active ingredient to soil and placed in anodised aluminium pans, 19 cm long×9.5 cm wide×5.0 cm deep. This rate is approximately equivalent to a soil surface application of 11.2 kg active ingredient/hectare cultivated to a depth of 5 cm. Seeds of the species listed below were sown in the treated soil, watered and placed in a controlled environment room (22° C.; 65-85% relative humidity; 14 hours per day artificial illumination at 13,000 lux) for 21 days. The plants were then visually assessed for any growth regulatory or herbicidal effects. All differences from an untreated control were scored on a scale from 0-100, where 0 signifies no effect and 100 signifies complete kill.
(§2) The compounds listed below were tested according to the procedure of Examples 56-60 but at 130 parts per million weight/volume of active ingredient to soil. This rate is approximately equivalent to a soil surface application of 56 kg active ingredient per hectare cultivated to a depth of 5 cm.
(§3) The product of Example 95 was tested according to the procedure of Examples 56-60 but at 130 and 26 parts per million weight/volume. The results were as follows:
(§4) N-(2-oxopropyl)-2'-chloro-6'-methyl-methanesulphonanilide, formulated as an attaclay/sand dust, was incorporated in John Innes I potting compost at a rate equivalent to 130 parts per million weight/volume of active ingredient to soil and placed in anodised aluminium pans, 19 cm long×9.5 cm wide×5.0 cm deep. These rates are approximately equivalent to a soil surface application of 56 kg active ingredient per hectare cultivated to a depth of 5 cm. Seeds of Peas, Mustard, Linseed, Maize, Oats and Ryegrass were sown in the treated soil, watered and placed in a controlled environment room (22° C.; 65-85% relative humidity; 14 hours artificial illumination at 13000 lux) for 21 days.
(§5) The plants were then visually assessed for any growth regulatory or herbicidal effects. All differences from an untreated control were scored on a scale from 0-100, where 0 signifies no effect and 100 signifies complete suppression.

Another assay relates to Peas (Pisum sativum). Put plainly: Soil incorporation (attaclay/sand dust), growth regulatory or herbicidal effects, peas. The conditions noted are these: Lathyrus oleraceus, 504 h, soil incorporation 130 ppm, 21 days, 0=no effect, 100=complete kill/suppression, read-out: growth regulatory or herbicidal effect score. Type of assay: in vivo.
Text: as §1, §2, §3, §4, §5

For a further assay, the system named is Mustard (Sinapis alba). Briefly: Soil incorporation (attaclay/sand dust), growth regulatory or herbicidal effects, mustard. It counts as in vivo. The note with it: 504 h, soil incorporation 130 ppm, 21 days, 0=no effect, 100=complete kill/suppression, read-out: growth regulatory or herbicidal effect score.
Text: as §1, §2, §3, §4, §5

Assay [1] relates to Ryegrass (Lolium perenne). Briefly: Soil incorporation (attaclay/sand dust), growth regulatory or herbicidal effects, ryegrass. It counts as in vivo. The note with it: 504 h, soil incorporation 130 ppm, 21 days, 0=no effect, 100=complete kill/suppression, read-out: growth regulatory or herbicidal effect score.
Text: as §1, §2, §3, §4, §5

The subject of a further assay is Oats (Avena sativa). Put plainly: Soil incorporation (attaclay/sand dust), growth regulatory or herbicidal effects, oats. It counts as in vivo. The note with it: 504 h, soil incorporation 130 ppm, 21 days, 0=no effect, 100=complete kill/suppression, read-out: growth regulatory or herbicidal effect score.
Text: as §1, §2, §3, §4, §5

Assay [2] has as its system Linseed (Linum usitatissimum). Put plainly: Soil incorporation (attaclay/sand dust), growth regulatory or herbicidal effects, linseed. It counts as in vivo. The conditions noted are these: 504 h, soil incorporation 130 ppm, 21 days, 0=no effect, 100=complete kill/suppression, read-out: growth regulatory or herbicidal effect score.
Text: as §1, §2, §3, §4, §5

Assay [3] relates to Pythium ultimum. Briefly: Cabbage seedling emergence in soil infected with Pythium ultimum. Type of assay: in vivo, Pythium ultimum (on cabbage, variety Flower of Spring). The note with it: 6 days, 25° C. The protocol: (§6) A one week old maize meal/sand culture of the damping-off disease organism Pythium ultimum was thoroughly mixed by hand with clean sterile John Innes No. 1 potting compost in the ratio of 3 kg culture to 12 liters of soil. The infected soil was then left for approximately 18 hours before use. Each of the compounds listed below was ground together with a wetting agent, Tween 20 (1% of final volume), until a solution or fine suspension was produced which was then diluted with distilled water to give 160 ml of solution containing 1500, 500, 150 or 50 ppm active ingredient. 15 ml aliquots of this solution were added to 75 g portions of the soil infected with Pythium ultimum which were contained in small plastic cartons, 60 mm diameter×55 mm high. Fifteen cabbage seeds, variety Flower of Spring, were placed in a circular depression in the treated infected soil, recovered, and the whole sealed with a plastic cap. The cartons were then placed in a constant temperature room at 25° C.±1° C. Four replications per treatment were made with one additional treatment where seeds were sown in soil which was chemically treated only, i.e. there was no infection. This latter treatment was included to measure the direct effect of the chemical on the germination of the seed. After six days the cartons were removed from the controlled temperature chamber and assessed for degree of fungal growth on the soil surface and percentage of seedling emergence. The results of both these assessments are expressed in a 0-8 scale as follows:
(§7) One week old maize meal/sand culture of the damping-off disease organism Pythium ultimum was thoroughly mixed by hand with clean sterile John Innes No. 1 potting compost in the ratio of 3 kg culture to 12 liters of soil. This infected soil was then left for approximately 18 hours before use. The compounds listed in the Table below were each ground with the wetting agent Tween 20 (1% of final volume), until a solution or fine suspension was produced, which was then diluted with distilled water to give 160 ml of solution containing 1500 or 500 parts per million (ppm) active ingredient. 15 ml aliquots of this solution were added to 75 g portions of the soil infected with Pythium ultimum which were contained in small plastic cartons, 60 mm diameter×55 mm high.
(§8) Fifteen cabbage seeds, variety Flower of Spring, were placed in a circular depression in the treated infected soil, recovered, and the whole sealed with a plastic cap. The cartons were then placed in a constant temperature room at 25° C.±1° C. Four replications per treatment were made, with one additional treatment where seeds were sown in soil which was chemically treated only, i.e. there was no infection. This latter treatment was included to measure the direct effect of the chemical on the germination of the seed.
(§9) After six days, the cartons were removed from the controlled temperature chamber and assessed for degree of fungal growth on the soil surface and percentage of seedling emergence. The results of both these assessments are expressed in a 0-8 scale as follows:
(§10) N-(2-oxopropyl)-3',4'-dimethyl-methanesulphonanilide was tested at a dose rate of 300 ppm in the test described in Examples 233 and 234. It gave a mycelial control score of 0 and a germination score of 3 whereas the untreated samples gave a score of 0 for both.

Assay [4] deals with Pythium ultimum. Briefly: Fungal growth on the surface of soil infected with damping-off disease organism. The note with it: 6 days, 25° C. It counts as in vivo. The protocol:
as §6, §7, §8, §9, §10

Where [5] appears, read: 300 ppm, 0-8 scale (Examples 233, 234, 268).

For `CCOC(=O)CN(c1cccc(C(F)(F)F)c1)S(C)(=O)=O` [Example 17], the plant injury at 130 µg/mL in the assay with Maize (Zea mays) and in the assay on Oats (Avena sativa) was 0% in each case. The pest or weed control at 130 µg/mL worked out at 40% in the assay on Peas (Pisum sativum), 40% in the assay on Mustard (Sinapis alba), 0% in assay [1] and 90% in assay [2].

For `CS(=O)(=O)N(CC#N)c1cccc(C(F)(F)F)c1` [Example 48], the figures for the plant injury at 130 µg/mL in the assay on Maize (Zea mays) and with Oats (Avena sativa) were 40% and 80%, respectively. The pest or weed control at 130 µg/mL with Peas (Pisum sativum) turned out to be 50%; with Mustard (Sinapis alba) it was 100%; in assay [1], 90%; in assay [2], 100%.

For `CCN(CC)C(=O)CN(c1ccc(Cl)cc1)S(C)(=O)=O` [Example 35], the plant injury at 130 µg/mL in the assay on Maize (Zea mays) and in the assay with Oats (Avena sativa) was 20% throughout. The pest or weed control at 130 µg/mL worked out at 20% with Peas (Pisum sativum), 100% with Mustard (Sinapis alba), 20% in assay [1] and 40% in assay [2].

Regarding `CC(=O)CN(c1c(C)cccc1Cl)S(C)(=O)=O` [Example 210, N-2-oxopropyl-2'-chloro-6'-methyl-methanesulphonanilide], the plant injury at 130 µg/mL in the assay with Maize (Zea mays) was 5%; in the assay on Oats (Avena sativa) it was 60%. The pest or weed control at 130 µg/mL amounted to 30% with Peas (Pisum sativum), 100% in the assay on Mustard (Sinapis alba), 70% in assay [1] and 80% in assay [2].

Regarding `CCc1ccccc1N(C(C)C(=O)O)S(C)(=O)=O` (centres unmarked) [Example 5], the plant injury at 130 µg/mL in the assay on Maize (Zea mays) and with Oats (Avena sativa) was 30% each time. Further, the pest or weed control at 130 µg/mL is 30% in the assay with Peas (Pisum sativum), 50% with Mustard (Sinapis alba), 20% in assay [1] and 70% in assay [2].

Take `CC1(CN(c2ccc(Cl)cc2)S(C)(=O)=O)OCCO1` [Example 228, N-[(2-methyl-1,3-dioxolan-2-yl)methyl]-4'-chloro-methanesulphonanilide]: in the assay with Pythium ultimum [3] (setting [5]), the “Germination Score” value is 0 (<20% inhibition). Further, the “Mycelial Control Score” value with Pythium ultimum [4] (setting [5]) is on record as 8 (>94% inhibition).

Turning to `CCOC(=O)CN(c1ccc(Cl)c(Cl)c1)S(C)(=O)=O` [Example 18], the plant injury at 130 µg/mL with Maize (Zea mays) was 30%; with Oats (Avena sativa), 0%. For the same compound, the pest or weed control at 130 µg/mL with Peas (Pisum sativum) was determined as 40%; in the assay on Mustard (Sinapis alba), 40%; in assay [1] it was 30%; in assay [2], 80%.

Consider `CC(C(=O)O)N(c1ccc(Cl)c(Cl)c1)S(C)(=O)=O` (centres unmarked) [Example 4], for which the plant injury at 130 µg/mL was 70% in the assay with Maize (Zea mays) and 40% in the assay with Oats (Avena sativa). The pest or weed control at 130 µg/mL was 70% in the assay with Peas (Pisum sativum), 70% with Mustard (Sinapis alba), 0% in assay [1] and 90% in assay [2].

Consider `CCS(=O)(=O)N(c1c(C)cccc1C)C(C)C(=O)O` (centres unmarked) [Example 9], for which the plant injury at 130 µg/mL turned out to be 30% in the assay with Maize (Zea mays) and 20% with Oats (Avena sativa). In addition, the “Germination Score” value with Pythium ultimum [3] (30 ppm, 0-8 scale) is listed as 1 (20-34% inhibition); with Pythium ultimum [3] (100 ppm, 0-8 scale), 5 (65-74% inhibition); in the assay with Pythium ultimum [3] (300 ppm, 0-8 scale), 5 (65-74% inhibition). In addition, the pest or weed control at 130 µg/mL in the assay with Peas (Pisum sativum) was determined as 50%; in the assay on Mustard (Sinapis alba), 70%; in assay [1], 20%; in assay [2], 80%. Further, the “Mycelial Control Score” value in the assay on Pythium ultimum [4] (30 ppm, 0-8 scale) is 0 (<20% inhibition); with Pythium ultimum [4] (100 ppm, 0-8 scale), 0 (<20% inhibition); with Pythium ultimum [4] (300 ppm, 0-8 scale), 0 (<20% inhibition).

Take `CS(=O)(=O)N(CC#N)c1ccc(Cl)cc1` [Example 45]: the plant injury at 130 µg/mL in the assay on Maize (Zea mays) stood at 30%; with Oats (Avena sativa) it was 70%. Also, the pest or weed control at 130 µg/mL in the assay on Peas (Pisum sativum) was determined as 20%; with Mustard (Sinapis alba), 100%; in assay [1] it was 80%; in assay [2] it was 90%.

Consider `CCOC(=O)CN(c1c(C)cccc1C)S(C)(=O)=O` [Example 14], for which the plant injury at 130 µg/mL was found to be 40% with Maize (Zea mays) and 20% in the assay on Oats (Avena sativa). Besides, the pest or weed control at 130 µg/mL is 30% with Peas (Pisum sativum), 100% in the assay on Mustard (Sinapis alba), 30% in assay [1] and 90% in assay [2].

With `Cc1cccc(C)c1N([C@@H](C)C(=O)O)S(C)(=O)=O` [Example 7, N-(2,6-dimethylphenyl)-N-methanesulphonyl alanine], the plant injury at 130 µg/mL in the assay with Maize (Zea mays) and in the assay with Oats (Avena sativa) was 30% each time. The pest or weed control at 130 µg/mL in the assay with Peas (Pisum sativum) was 20%; in the assay with Mustard (Sinapis alba) it was 70%; in assay [1] it was 0%; in assay [2], 50%.

For `CC(C)c1ccccc1N(CC#N)S(C)(=O)=O` [Example 47], the plant injury at 130 µg/mL amounted to 10% in the assay on Maize (Zea mays) and 30% in the assay with Oats (Avena sativa). Also, the pest or weed control at 130 µg/mL turned out to be 10% in the assay on Peas (Pisum sativum), 80% with Mustard (Sinapis alba), 50% in assay [1] and 100% in assay [2].

Take `CCN(CC)C(=O)CN(c1c(C)cccc1C)S(C)(=O)=O` [Example 36]: the plant injury at 130 µg/mL in the assay on Maize (Zea mays) and in the assay with Oats (Avena sativa) was 20% each time. Also, the pest or weed control at 130 µg/mL with Peas (Pisum sativum) was 20%; with Mustard (Sinapis alba) it was 100%; in assay [1] it was 20%; in assay [2] it was 40%.

As to `CCOC(=O)CN(c1ccc(Cl)cc1)S(C)(=O)=O` [Example 12], the plant injury at 130 µg/mL with Maize (Zea mays) worked out at 0%; in the assay on Oats (Avena sativa), 5%. Moreover, the pest or weed control at 130 µg/mL in the assay on Peas (Pisum sativum) came to 40%; with Mustard (Sinapis alba), 70%; in assay [1], 5%; in assay [2], 80%.
